For this data set, the system named is HaCaT cells. The experiment in a line: Cytotoxicity evaluation (CCK8 assay). The data set is classed as cell-based. The note with it: serum-free medium, 24 hours. As for the experimental part: HaCaT cells and B16F10 cells were cultured in a cell culture medium supplemented with 10% of fetal bovine serum (FBS) and antibiotic solution (100 units/ml penicillin, 100 μg/ml of streptomycin) in DMEM medium. The cells were cultured under conditions maintained at 37° C., 95% humidity, and 5% CO2, and when the cells were 70-80% adhered to the culture dish, they were treated with trypsin-EDTA and subcultured. HaCaT cells were distributed and cultured from Professor Tae-Yoon Kim of the College of Medicine, The Catholic University of Korea, and B16F10 cells were distributed and cultured from the Korean Cell Line Bank.
To evaluate the toxicity of RMNE1 in HaCaT skin cells, 3×10^4 of HaCaT cells were attached to a 96-well plate 12 hours ago. Thereafter, the cells were washed using serum-free DMEM medium and then treated with RMNE1 peptide at different concentrations in the serum-free medium. After 24 hours, the cells were washed a total of three times with serum-free medium, and then cell activity was measured using the CCK8 assay.
Background: Tetrazolium dyes change colour on reduction, which living cells bring about.

Our source for the cytotoxicity values is patent US20260256670A1, “COMPOSITION CONTAINING PEPTIDES HAVING SKIN-LIGHTENING EFFECT” (REMEDI CO., LTD., priority 2022, published 2026).

Ends that are not written are not given here.

Take “DEQERRRRRGRTRVRSE [RMNE1, DEQERRRRRGRTRVRSE]”: the cytotoxicity entry is recorded as “low cytotoxicity”.
